Patent US20040192641A1, “Special preparation of anticancer drugs made by novel nanotechnology” (priority 2003, published 2004)

What was measured:
[1] = test system: Human leukemia cells (HL-60); experiment: Apoptosis of cancer cells (HL-60); assay type: cell-based
Method: Human leukemia cells (HL-60) were grown in RPMI Medium 1640 supplemented with 10% (v/v) heat-inactivated FBS (56° C. for 30 min) at 37° C. in a humidified 95% air/5% CO2 atmosphere. Cells were seeded at a level of 2×10^5 cells/ml. Cells were allowed to attain a maximum density of 1.2×10^6 cells/ml before being passed by dilution into fresh medium to a concentration of 2×10^5 cells/ml.
Apoptosis determined by the following process: Cell pellets containing 5×10^6 cells were fixed with 2.5% glutaraldehyde in cacodylate buffer (pH 7.4), dehydrated through graded alcohol, and infiltrated with LX-112 epoxy resin. After overnight polymerization at 60° C. 1-μm sections were cut with glass knives using a LKB Nova microtome. The sections were stained with 1% toluidine blue and coverslipped.
DNA electrophoresis: Untreated and treated HL-60 cells collected by centrifugation, washed in phosphate buffered saline and re-suspended at a concentration of 5×10^6 cells and 0.1% RNase A. The mixture was incubated at 37° C. for 30 min and then incubated for an additional 30 min at 37° C. with 1 ml protease K. Buffer was added and 25 μl of the tube content transferred to the Horizontal 1.5% agarose gel electrophoresis was performed at 2 V/cm. DNA in gels visualized under UV light after staining with ethidium Bromide (5 μg/ml).
DNA fragmentation assays: DNA cleavage was performed, quantitation of fractional solubilized DNA by diphenylamine assay and the percentage of cells harboring fragmented DNA determined by in labeling techniques. For the diphenylamine assay, 5×10^6 cells were lysed in 0.5 mL lysis buffer (5 mmol/L Tris-HCl, 20 mmol/L DTA, and 0.5% Triton X-100, pH 8.0) at 4° C. Lysates were centrifuged (15,000 g) for separation of high molecular weight DNA (pellet) and DNA cleavage products (supernatant). DNA was precipitated with 0.5 N perchloric acid and quantitated using diphenylamine reagent. The cell cycle distribution was determined 4 hours after addition of drug and represents mean±SD of 5 independent experiments.
Human promyelocytic leukemia cells (HL-60) were grown in RPMI Medium 1640 supplemented with 10% (v/v) heat-inactivated FBS (56° C. for 30 min) at 37° C. in a humidified 95% air/5% CO2 atmosphere. Cells were seeded at a level of 2×10^5 cells/ml. Cells were allowed to attain a maximum density of 1.2×10^6 cells/ml before being passed by dilution into fresh medium to a concentration of 2×10^5 cells/ml. Apoptosis determined by the following process: Cell pellets containing 5×10^6 cells ere fixed with 2.5% glutaraldehyde in cacodylate buffer (pH 7.4), dehydrated through graded alcohol, and infiltrated with LX-112 epoxy resin. After overnight polymerization at 60° C. 1-μm sections were cut with glass knives using a LKB Nova microtome. The sections were stained with 1% toluidine blue and coverslipped. […]
DNA fragmentation assays: DNA cleavage was performed, quantitation of fractional solubilized DNA by diphenylamine assay and the percentage of cells harboring fragmented DNA determined by in labeling techniques. […] DNA was precipitated with 0.5N perchloric acid and quantitated using diphenylamine reagent. […]

[2] = Acute toxicity LD50
[3] = test system: S180, ECS, HCS, ARS, U-14 and L615 transplanted tumor; experiment: Growth of transplanted tumors; assay type: in vivo, mice; conditions: 20 mg/kg
Method: Male mice, weight 20-22 g, were used in the experiment. 1×10^7 tumor cells were injected to mouse and PK-HHT-NP injected intraperitoneally began second day. All mice were sacrificed on the 12th days, isolated the tumor and weighed and calculated the inhibition rate of tumor weight.
Male mice, weight 20-22 g, were used in the experiment. 1×10^7 tumor cells were injected to mouse and CUR and PK-CUR-NP injected intraperitoneally began second day. All mice were sacrificed on the 12th days, isolated the tumor and weighed and calculated the inhibition rate of tumor weight.
Male mice, weight 20-22 g, were used in the experiment. 1×10^7 tumor cells were injected to mouse and ELE injected intraperitoneally began second day. All mice were sacrificed on the 12th days, isolated the tumor and weighed and calculated the inhibition rate of tumor weight.
Male mice, weight 20-22 g, were used in the experiment. 1×10^7 tumor cells were injected to mouse and CPT injected intraperitoneally began second day. All mice were sacrificed on the 12th days, isolated the tumor and weighed and calculated the inhibition rate of tumor weight.

[4] = test system: NNK-induced lung tumorigenesis (pulmonary adenomas); experiment: NNK-induced lung tumorigenesis; assay type: in vivo, mice; conditions: 20 mg/kg daily by injection; 10 μmol NNK i.p.; sixteen weeks
Method: The capacity of tobacco-specific nitrosamine 4-(methylnitrosamino)-1-(3-pyridyl)-1-butanone (NNK) to induce tumor incidence was recognized.
(§1) Every group had 20 mice. For treatment group, each mouse was gave free CUR and PK-CUR-NP by injection at dose of 20 mg/kg daily. For control group, each mouse was gave same volume of physiological saline. Three days later, mice were gave 10 μmol NNK (in 0.1 ml saline) by i.p. injection. Sixteen weeks after these treatments the mice were killed and pulmonary adenomas were counted. The statistical significance of bioassay data was determined by student's test.
as §1, with “ELE” for “free CUR”, “PK-ELE-NP” for “PK-CUR-NP”
as §1, with “CPT” for “CUR”, “PK-CPT-NP” for “PK-CUR-NP”

[5] = mice, I.P. (injection in abdominal cavity)

## COC(=O)C[C@](O)(CCCC(C)(C)O)C(=O)O[C@@H]1C(OC)=C[C@]23CCCN2CCc2cc4c(cc2[C@H]13)OCO4 [HHT, Homoharringtonine]
[1]; Concentration 20 μm
  Apoptosis (%): 68.3 ± 7.6%
[1]; Example 59
  Apoptosis (%): 68.3 ± 7.6%
[2]; mouse, in vivo, ip
  LD50: 3.3 ± 0.29 mg/kg

## CC[C@@]1(O)C(=O)OCc2c1cc1n(c2=O)Cc2cc3ccccc3nc2-1 [CPT, Camptothecin]
[1]; concentration not given
  Apoptosis (%): 65.8 ± 9.8%
[3]
  growth of transplanted tumor: could inhibit the growth
[4]
  Tumor incidence (%): 36.2 ± 6.2%
[2]; mouse, in vivo, ip
  LD50: 76 mg/kg

## Eelemene
[1]; concentration not given
  Apoptosis (%): 69.2 ± 9.1%
[3]
  growth of transplanted tumor: could inhibit the growth
[4]
  Tumor incidence (%): 34.8 ± 6.2%
[2]; [5]
  LD50: 318 mg/kg

## C=C1C[C@@]2(O)O[C@@]3(C[C@H]2C(C)C)[C@@H](C)CC[C@@H]13 [CUR, Curcumol]
[1]; concentration not given
  Apoptosis (%): 68.3 ± 7.8%
[3]
  growth of transplanted tumor: could inhibit the growth
[4]
  Tumor incidence (%): 35.8 ± 5.8%
[2]; [5]
  LD50: 325 mg/kg
